In patent US8865426B2, “Screening method using gelatinase-mediated EphA4 cleavage reaction as an indicator” (Eisai R&D Management Co., Ltd., priority 2010, dated 2014):

Experiments:
[1] = tested on: gelatinase (MMP-2, MMP-9)-mediated EphA4 ectodomain cleavage reaction; experiment: Western blot assay of NMDA-induced EphA4 cleavage (EphA4 endodomain fragment) in hippocampal primary cultured neurons; assay type: cell-based, rat
Method: (§1) With the aim of identifying proteases which cleave off the EphA4 ectodomain in a neuronal activity-dependent manner, analysis was first performed using a specific inhibitor of gelatinase family molecules (MMP-2, MMP-9) having important functions in the brain. Neurostimulation was performed with 50 μM NMDA, and the inhibitor used was mmp-2/9 Inhibitor II ((2R)-[(4-biphenylylsulfonyl)amino]-N-hydroxy-3-phenylpropionamide, Merck). For detection of cleavage reaction, two types of antibody-based assays were used, i.e., Western blot assay using an antibody capable of recognizing the EphA4 endodomain and ELISA assay using an antibody capable of recognizing the EphA4 ectodomain.
(§2) Hippocampi were isolated from SD rats at 18 days of embryonic age (Charles River Laboratories, Inc.) and provided for culture. More specifically, fetuses were aseptically taken from pregnant rats. From these fetuses, brains were excised and soaked in 20% FBS (Hyclone)/HBSS (SIGMA). From the excised brains, hippocampi were collected under a stereoscopic microscope. […] On the other hand, the neuronal cells were collected with PBS and then quantified for their protein levels, and 10 μg aliquots were subjected to SDS-PAGE, followed by Western blotting with an anti-EphA4 antibody capable of recognizing the endodomain.

[2] = tested on: gelatinase (MMP-2, MMP-9)-mediated EphA4 ectodomain cleavage reaction; experiment: ELISA assay of NMDA-induced EphA4 cleavage (EphA4 ectodomain in cultured solution) in hippocampal primary cultured neurons; assay type: cell-based, rat
Method: as §1, §2

neuronal activity-dependent EphA4 ectodomain cleavage reaction in hippocampal primary cultured neurons (summary statement) ([2]; concentration not given)	EphA4 cleavage event detected by ELISA with antibody recognizing the EphA4 ectodomain ([2]; hippocampal neuronal cells stimulated with 50 μM NMDA, 5 μM inhibitor, FIG. 2B)	Compound	EphA4 cleavage reaction (EphA4 endodomain fragment, Western blot) ([1]; hippocampal neuronal cells stimulated with 50 μM NMDA, 0, 1, 5, 10 or 25 μM inhibitor added, FIG. 2A)	induction of EphA4 cleavage reaction (EphA4 endodomain fragment detected) ([1]; hippocampal neuronal cells, 50 μM NMDA, 30 minutes, FIG. 2)
completely inhibited	completely inhibited	O=C(NO)[C@@H](Cc1ccccc1)NS(=O)(=O)c1ccc(-c2ccccc2)cc1 [mmp-2/9 Inhibitor II, (2R)-[(4-Biphenylylsulfonyl)amino]-N-hydroxy-3-phenylpropionamide]	inhibited in a concentration-dependent manner	–
–	–	CN[C@H](CC(=O)O)C(=O)O [NMDA]	–	induced
